Measurements published in patent publication EP4755396A1, “TREATMENT OF P53 GENE MUTATION OR DEFECT NEGATIVE CANCER AND TUMOR PATIENTS” (Ascentawits Pharmaceuticals, Ltd., priority 2023, dated 2025).
pIC50: −log10 of the molar value.

Experiments:
HPAF-II cells [1] = assay: Cell cycle G2/M arrest, PI staining flow cytometry; format: cell-based; conditions: HPAF-II cells with p53 pathogenic mutation, 0.1 nM AST-3424, 5 µM Nutlin-3, 24 hours (Figure 5)
Method: Overview of the experimental process: • 1) H460/HPAF-II cell suspensions were added to a 24-well plate, with a cell density of 100000 /well and 995 µL of medium per well. • 2) The cells were cultured overnight in an incubator at 37°C, 5% CO2. • 3) Compound Treatment
After 24 hours of cell plating, according to the protocol, each cell line experiment was grouped as: Monotherapy: After 24 hours of cell plating, each well was supplied with 5µL of test compounds at different concentrations: 1% DMSO, 5 µM Nutlin-3 and 0.1 nM AST-3424, shaken gently to ensure even mixing, and then placed at 37°C, 5% CO2 in an incubator.
To cells AST-3424 pre-treatment for 2 hours followed by co-treatment with Nutlin-3 for 24 hours.
To cells Nutlin-3 pre-treatment for 2 hours followed by co-treatment with AST -3424 for 24 hours.
Co-treatment with AST-3424 and Nutlin-3 for 24 hours.
4) The cells were digested, centrifuged at 1000 g at 4°C, washed once with pre-cooled PBS, centrifuged at 1000 g at 4°C, and fixed with 1 mL of pre-cooled 70% ethanol at -20°C overnight.
5) The cells were centrifuged at 3000g at 4°C, washed once with pre-cooled PBS (phosphate buffer), centrifuged at 3000g at 4°C. Prepare PI staining solution. […] Flow cytometric detection was performed on the same day, and the proportion of cells in different cell cycle phases was analyzed using FlowJo. […]

[2] = tested on: Ser15-p53, Ser20-p53, Total p53, MDM2 and p21 proteins in H460 cells; assay: WB detection of p53 protein pathway; format: cell-based; conditions: 0.1-1 nM AST-3424, 5 µM Nutlin-3, 24 hours, three experiments (Figures 11-13)
Method: Overview of the experimental process: • 1) H460 cell suspension was added to a 24-well plate, with a cell density of 80000 /well and 995 µL of medium per well. • 2) The cells were cultured overnight in an incubator at 37°C, 5% CO2. • 3) Compound Treatment
After 24 hours of cell plating, according to the protocol, each cell line experiment was grouped as: Monotherapy: After 24 hours of cell plating, each well was supplied with 5µL of test compounds at different concentrations: 0.5% DMSO, 0.1nM AST-3424 and 5 µM Nutlin-3, shaken gently to ensure even mixing, and then placed at 37°C, 5% CO2 in an incubator.
Combination therapy: After 24 hours of cell plating, each well was supplied with 5µL of test compounds at different concentrations. The cells were pre-treated with 5µM Nutlin-3 for 2 hours and then were added with 0.1nM AST-3424, shaken gently to ensure even mixing, and then placed at 37°C, 5% CO2 in an incubator.
4) Cell protein lysates were collected for WB analysis.
Combination therapy group: • Adding 0.1 nM AST-3424 for pre-treatment for 2 hours, and then adding 5 µM Nutlin-3 for co-treatment for 22 hours; • Adding 0.3 nM AST-3424 for pre-treatment for 2 hours, and then adding 5 µM Nutlin-3 for co-treatment for 22 hours; • Adding 1 nM AST-3424 for pre-treatment for 2 hours, and then adding 5 µM Nutlin-3 for co-treatment for 22 hours.

[3] = tested on: Total P53, MDM2, P21, AKR1C3 proteins in H460 cells; assay: WB detection, presence and absence of Nutlin-3; format: cell-based, human; conditions: wild-type H460, 5 µM Nutlin-3, 24h, compared with the H460 wild-type DMSO group (Figures 29, 30)
Method: (§1) • 1) H460 and H460 P53 KO cell suspensions were added to a 24-well plate, with a cell density of 100000 /well and 995 µL of medium per well. • 2) The cells were cultured overnight in an incubator at 37°C, 5% CO2. • 3) Compound Treatment
(§2) After 24 hours of cell plating, according to the protocol, each cell line experiment was grouped as: H460 WT untreated group, H460 P53 KO # 1 untreated group, H460 P53 KO # 7 untreated group, H460 P53 KO # 8 untreated group, H460 P53 KO # 12 untreated group, H460 WT 0.1% DMSO treated group, H460 WT 5 µM Nutlin-3 treated group, H460 P53 KO # 1 5 µM Nutlin-3 treated group, H460 P53 KO # 7 5 µM Nutlin-3 treated group, H460 P53 KO # 8 5 µM Nutlin-3 treated group, H460 P53 KO # 12 5 µM Nutlin-3 treated group. […]
(§3) • 1) The cell plates were taken back, the medium supernatant was discarded, and the plates were gently rinsed with PBS. […] The cells were scraped off with a cell scraper, lysed on ice for 30 min, and centrifuged at 14000 rpm and 4°C for 10 min. • 2) Protein quantification was performed using the BCA method. […] Solutions A and B of the ECL luminescence solution (SuperSignal West Femto Maximum Sensitivity) were mixed and added to the membrane dried away from water. […]

[4] = tested on: Total P53, MDM2, P21, AKR1C3 proteins in H460 P53 KO cells; assay: WB detection, presence and absence of Nutlin-3; format: cell-based, human; conditions: H460 P53 KO cells (#1, #7, #8, #12), 5 µM Nutlin-3, 24h, compared to H460 wild-type DMSO group (Figures 29, 30)
Method: as §1, §2, §3

A549 cells = assay: Cell cycle G2/M arrest, PI staining flow cytometry; format: cell-based; conditions: second experiment, 0.3-9 nM AST-3424, 5 µM Nutlin-3, AST-3424 pre-treatment 2 hours (Figure 6)
Method: A second experiment was further conducted, in order to further study the effects of different concentrations of AST-3424 alone, Nutlin-3 alone and the two in combination and different administration sequences in the combination therapy on the cell cycle of H460/A549 cells (p53 wild-type, protein normal expression).
The remaining operations were similar to the above experiment, and the compound treatment conditions were as follows:
For A549 cell line, 1% DMSO, adding 5 µM Nutlin-3 for treatment for 22 hours, adding 0.3 nM AST-3424 for treatment for 24 hours, adding 1 nM AST-3424 for treatment for 24 hours, adding 9 nM AST-3424 for treatment for 24 hours, and adding 9 nM AST-3424 for treatment for 24 hours.
For A549 cell line, • Adding 0.3 nM AST-3424 for pre-treatment for 2 hours, and then adding 5 µM Nutlin-3 for co-treatment for 22 hours; • Adding 1 nM AST-3424 for pre-treatment for 2 hours, and then adding 5 µM Nutlin-3 for co-treatment for 22 hours; • Adding 3 nM AST-3424 for pre-treatment for 2 hours, and then adding 5 µM Nutlin-3 for co-treatment for 22 hours; • Adding 9 nM AST-3424 for pre-treatment for 2 hours, and then adding 5 µM Nutlin-3 for co-treatment for 22 hours.

[5] = tested on: γH2AX protein in H460 cells; assay: WB detection of DNA damage marker; format: cell-based; conditions: 0.1-1 nM AST-3424, 5 µM Nutlin-3, 24 hours (Figures 20-22)
Source text: In the first, the second and the third experiment of the effect of AST-3424 in combination with Nutlin-3 on Ser15-p53, Ser20-p53, Total p53, MDM2 and p21 proteins in H460 cells in example 5, the applicant also performed WB detection of γH2AX protein, with the results shown in Figures 20, 21 and 22.

HPAF-II cells [6] = assay: In vitro cell proliferation inhibition (96-well, CTG, 72 hours); format: cell-based; conditions: Homo sapiens, monotherapy, applicant's previous cancer cell proliferation inhibition test data

## COc1ccc(C2=NC(c3ccc(Cl)cc3)C(c3ccc(Cl)cc3)N2C(=O)N2CCNC(=O)C2)c(OC(C)C)c1 (racemic) [Nutlin-3]
HPAF-II cells [1]
  cell cycle (G0/G1, S, G2/M phases): no effect
[2]
  phosphorylation of p53 (Ser15-p53 and Ser20-p53), protein expression of total-p53, MDM2 and p21 (WB): upregulated the expression levels of p53 and its downstream proteins p21 and MDM2
[3]
  expressions of MDM2, P53, P21 and AKR1C3 proteins (WB): all upregulated
[4]
  expressions of MDM2, P53, P21 and AKR1C3 proteins (WB): not upregulated

## C[C@H](OP(=O)(N1CC1)N1CC1)c1ccc([N+](=O)[O-])c(Oc2cccc(C(=O)N(C)C)c2)c1 [AST-3424]
A549 cells
  G2/M cell cycle arrest: concentration-dependent G2/M cell cycle arrest
[5]
  γH2AX protein amount, a biomarker of DNA double-strand damage (WB): upregulate the amount of γH2AX protein

## O=[N+]([O-])c1ccc(C(OP(=O)(N2CC2)N2CC2)C(F)(F)F)cc1Oc1ccc(-c2ccc(F)cc2)c(F)c1 (stereo not shown) [AST]
HPAF-II cells [6]
  pIC50: 6.48
